Measurements published in patent US9439884B2, “Methods for the treatment of immune disorders” (Beth Israel Deaconess Medical Center, Inc., priority 2011, dated 2016).
“Also recorded” adds a separate entry of the source. Read-outs that look alike come from different tables or passages of the source. Values belong to the compound of their own block, whether it stands above or below them. *1 amine or outer side, *2 acyl side, *3 side chain or, on linkers, in order; H or OH if unused. Where a SMILES comes first, the peptide text is derived from it. Where no end group is shown, it is not given here. [ ]: non-standard residue; d: D form. 15N‑Ala = Ala with single 15N label, C[C@H]([15NH][*:1])C(=O)[*:2]; pS = N[C@@H](COP(=O)(O)O)C(=O)O

Assays:
[1] = target: T1, Pin1 (Homo sapiens, UniProt Q13526); assay: Pin1 PPIase (catalytic activity) assay in vitro; format: biochemical
T1 sequence (Q13526 whole entry): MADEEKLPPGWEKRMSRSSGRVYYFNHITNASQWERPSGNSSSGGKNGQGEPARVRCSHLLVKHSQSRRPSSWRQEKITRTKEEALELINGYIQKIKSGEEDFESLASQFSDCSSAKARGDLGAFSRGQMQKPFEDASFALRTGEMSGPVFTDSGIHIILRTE
Description: (§1) In this regard, recently, we identified specific and potent Pin1 catalytic peptidic inhibitors and used them to establish a robust and sensitive FP-based HTS to screen approved drugs and NIH Chemical and Genomics Center, which led us to successfully identify all trans retinoic acid (ATRA) and four other Pin1 inhibitors active in cells for further optimization including Cpd4 (FIG. 27A).
(§2) We developed a fluorescence polarization (FP)-based HTS using fluorescence labeled Pin1 peptidic inhibitor, pTide to identify Pin1 inhibitors. Our screening of selected compounds at the Harvard ICCB-L libraries identified the strongest hit to be cis-RA according to the Z-score (FIG. 31A). To confirm that RAs target Pin1, we examined cis-RA and trans-RA in vitro and in cells. […] Cellular Pin1 activity was also reflected by cyclin D1 levels (FIG. 31D), a known Pin1 biomarker.

[2] = target: T1, Pin1; assay: Fluorescence polarization (FP)-based HTS / displacement of labeled Pin1 peptidic inhibitor pTide; format: binding
Description: as §1, §2

[3] = test system: PP2A; assay: Pin1 dephosphorylation in human PBMCs after TLR9 activation by CpG; format: cell-based; conditions: human PBMCs pretreated with 5 nM
Description: We have shown that in SLE T cells the message, protein and activity of PP2Ac is increased and is involved in their abnormal function. First, PP2Ac dephosphorylates pCREB and accounts for the decreased IL-2 production. Second, PP2Ac dephosphorylates the transcription factor Elf1 and decreases its ability to bind to the promoters of CD3zeta and FcRgamma genes causing suppression of the first and derepression of the second with significant repercussions in the composition of the CD3 complex in SLE T cells. Third, PP2Ac dephosphorylates (and activates) SP1, which binds to the promoter of IL-17A and promotes its expression. […] Moreover, Pin1 also was dephosphorylated in T cells isolated from CD2:PP2A transgenic mice that overexpresses PP2Ac in T cells developed in Dr. Tsokos laboratory, but not wild-type littermates (FIG. 25E). Therefore, it is reasonable to predict that increased PP2Ac activity may contribute to the dephosphorylation and activation of Pin1 in SLE. Alternatively, because calcineurin (CaN) can also dephosphorylate Pin1 in vitro (FIG. 25) and CaN inhibitors may have a place in the treatment of SLE, we will consider it as a viable alternative to PP2Ac.

[4] = target: T1, Pin1; assay: Co-crystal structure of Pin1 and ATRA; format: binding
[5] = test system: BM-derived eosinophils; assay: IL-6 ELISA in IL-33-stimulated BM-derived eosinophils; format: cell-based; conditions: 100 ng/ml IL-33
[6] = test system: T47D; assay: Cell growth inhibition, T47D; format: cell-based; conditions: breast cancer cell line T47D
[7] = test system: cancer cells; assay: Pin1-dependent cancer cell growth; format: cell-based
Description: as §1

[8] = test system: pDCs; assay: Cytokine production of pDCs upon TLR9 activation by CpG; format: cell-based
[9] = test system: Pin1 KO MEFs; assay: Anti-proliferative effect in Pin1 KO MEFs with or without Pin1 re-expression; format: cell-based, mouse
[10] = test system: lupus prone mouse models; conditions: some lupus prone mouse models; cited from earlier work
[11] = test system: MCF-10A; assay: Cell growth, normal breast cells MCF-10A; format: cell-based
[12] = target: T1, Pin1; assay: Pin1 protein/mRNA levels and turnover in cells; format: cell-based
Description: as §2

[13] = test system: SKBR3; assay: Cell growth inhibition, SKBR3; format: cell-based; conditions: breast cancer cell line SKBR3
[14] = test system: NZBWF1 mice; assay: Proteinuria in lupus-prone NZBWF1 mice (Bio-Rad assay); format: in vivo; conditions: female NZBWF1 mice, controlled release pellets, 3.5 months, vs placebo
Procedure: Female lupus-prone NZBWF1 mice were treated with placebo or ATRA for 3.5 months and proteinuria was evaluated by Bio-Rad assay.
Our objective here was to determine if the Pin1 inhibitor we have discovered, ATRA, offer a treatment benefit in preclinical models of SLE. To this end we have been treating NZBWF1 female mice for 3.5 months with controlled release ATRA pellets, which have been well established pharmacologically and which offer the advantage ease of delivery, reduced stress to subjects and controlled drug release. Each cohort has been pre-bleed and urine collected before the start of drug treatment. Subsequently, we have collected serum and urine samples monthly for evaluation of disease markers such as autoantibodies and proteinuria.

[15] = target: T2, Pin1 (Mus musculus, UniProt Q9QUR7); assay: Pin1 western and PPIase assay in IL-33-stimulated BM-derived eosinophils; format: cell-based; conditions: 100 ng/ml IL-33
T2 construct: endogenous in cells; host or cells: bone-marrow-derived eosinophils
T2 sequence (Q9QUR7 whole entry): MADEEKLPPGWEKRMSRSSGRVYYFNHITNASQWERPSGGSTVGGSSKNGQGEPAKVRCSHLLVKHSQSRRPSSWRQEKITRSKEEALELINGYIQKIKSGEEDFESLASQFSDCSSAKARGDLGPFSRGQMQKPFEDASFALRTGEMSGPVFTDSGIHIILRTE

[16] = target: T3, TLR9 (Homo sapiens, UniProt Q9NR96); conditions: cited from earlier work
T3 sequence (Q9NR96 26-1032): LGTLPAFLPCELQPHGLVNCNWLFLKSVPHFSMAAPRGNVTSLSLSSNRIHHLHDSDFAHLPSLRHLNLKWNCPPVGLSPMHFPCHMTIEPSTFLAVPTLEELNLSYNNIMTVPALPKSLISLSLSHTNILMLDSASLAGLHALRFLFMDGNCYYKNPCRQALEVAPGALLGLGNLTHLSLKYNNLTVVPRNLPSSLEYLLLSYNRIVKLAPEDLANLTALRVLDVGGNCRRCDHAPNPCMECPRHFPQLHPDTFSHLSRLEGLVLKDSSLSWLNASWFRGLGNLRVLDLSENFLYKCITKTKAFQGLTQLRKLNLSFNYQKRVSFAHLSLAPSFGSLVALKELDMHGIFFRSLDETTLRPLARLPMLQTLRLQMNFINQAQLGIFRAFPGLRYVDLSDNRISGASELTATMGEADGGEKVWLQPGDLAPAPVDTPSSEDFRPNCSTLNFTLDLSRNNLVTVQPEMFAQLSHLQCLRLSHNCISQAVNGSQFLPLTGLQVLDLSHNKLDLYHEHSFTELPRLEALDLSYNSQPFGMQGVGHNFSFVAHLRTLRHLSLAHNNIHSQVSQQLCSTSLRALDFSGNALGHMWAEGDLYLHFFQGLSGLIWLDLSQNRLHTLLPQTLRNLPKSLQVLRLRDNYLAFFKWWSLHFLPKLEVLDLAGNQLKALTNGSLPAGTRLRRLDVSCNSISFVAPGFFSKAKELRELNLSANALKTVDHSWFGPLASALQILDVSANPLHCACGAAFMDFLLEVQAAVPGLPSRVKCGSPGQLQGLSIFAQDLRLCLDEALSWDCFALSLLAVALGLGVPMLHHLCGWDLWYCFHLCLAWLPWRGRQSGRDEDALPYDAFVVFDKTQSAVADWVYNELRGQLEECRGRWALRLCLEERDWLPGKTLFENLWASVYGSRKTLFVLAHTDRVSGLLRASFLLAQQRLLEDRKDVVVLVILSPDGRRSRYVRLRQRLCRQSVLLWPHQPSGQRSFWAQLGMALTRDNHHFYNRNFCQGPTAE

[17] = target: T4, Pin1 WW domain (Homo sapiens, UniProt Q13526); assay: 2D NMR (15N-1H HSQC) titration of 15N-WW domain with IRAK1 phosphopeptides; format: binding; conditions: chemical shift change of 15N-WW domain as a function of peptide concentration; read-out: dissociation constants (KD)
T4 construct: monitor the changes in the ^15N-WW domain induced by titration with phosphopeptide ligands
T4 sequence (Q13526 5-39 limits assumed): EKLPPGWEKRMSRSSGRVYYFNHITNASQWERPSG
Description: To measure the Pin1 interaction with each of the implicated pSer-Pro motifs in IRAK1, we employed two-dimensional (2D) NMR spectroscopy to monitor the changes in the ^15N-WW domain induced by titration with phosphopeptide ligands. In a 2d ^15N-^1H HSQC spectrum of a protein (FIG. 3a), each backbone NH group is represented by a peak, whose position reflects the chemical environment of that NH bond. Ligand binding to the protein is detected by changes in peak positions (fast exchange) or by the appearance of new peaks (slow exchange) as ligand is added. WW binding at each distinct IRAK1 site was measured using phosphopeptides containing residues 126-136 (pSer131-P132), 140-150 ([…]), and 157-180 (pSer173-P174) of IRAK1.

[18] = target: T1, Pin1; assay: 15N-1H Nzz exchange spectroscopy of Pin1-catalyzed cis-trans isomerization; format: biochemical; conditions: pS173P peptide bond; peptide 1 mM, Pin1 17 μM
Description: Because uncatalyzed cis-trans isomerization is a generally slow process (time constant minutes), the equilibrium between cis and trans isomers yields two distinct peaks for residues (such as A175) whose chemical environment differs in the two isomer states. […] The dependence of peak intensities on Nzz mixing time yields the cis-trans exchange rate. […] Based on peak intensities in the absence of Pin1, the pS173P trans:cis ratio is 85:15.

Compound: CC1=C(/C=C/C(C)=C/C=C/C(C)=C\C(=O)O)C(C)(C)CCC1 [cis-RA, 13-cis retinoic acid]
inhibition of Pin1 catalytic (PPIase) activity [1]: Dose-dependant Pin1 inhibition
hit ranking according to the Z-score ([2]; screening of Harvard ICCB-L libraries): strongest hit

Compound: C=C1[C@@H](O)[C@@H]2O[C@]3(CC[C@H](/C=C/[C@@H](C)[C@@H]4CC(C)=C[C@@]5(O[C@H](C[C@@](C)(O)C(=O)O)CC[C@H]5O)O4)O3)CC[C@H]2O[C@@H]1[C@@H](O)C[C@H](C)[C@H]1O[C@@]2(CCCCO2)CC[C@H]1C [okadaic acid]
Pin1 dephosphorylation after CpG [3]: reversed

Compound: CCN(CCO)CCCC(C)Nc1ccnc2cc(Cl)ccc12 (stereo not drawn) [hydroxychloroquine]
stimulation of TLR9 [16]: inhibits stimulation of TLR9

Now from value to compound, other results behind:

binding site in co-crystal structure [4]: bound to Pin1 active site
inhibition of Pin1 catalytic (PPIase) activity [1]: inhibited its catalytic activity
Pin1 levels ([12]; breast cancer cell lines SKBR3 and T47D): reducing Pin1 levels
degradation of Pin1 and its substrate D1 ([12]; cancer cells): induced the degradation
Pin1 inhibition in FP assays ([2]; compared with cis-RA): more potent Pin1 inhibition than cis-RA
competition with Pin1 catalytic peptidic inhibitors for binding to the Pin1 active site ([2]; preliminary results): effectively competed
Pin1 activation (PPIase assay) [15]: inhibited Pin1 activation
Pin1 degradation (Pin1 western) [15]: induced Pin1 degradation
Compound: CC1=C(/C=C/C(C)=C/C=C/C(C)=C/C(=O)O)C(C)(C)CCC1 [ATRA, all trans retinoic acid]
IL-6 secretion [5]: inhibited
inhibition of cell growth [6]: inhibiting cell growth
inhibition of Pin1-dependent cancer cell growth [7]: inhibited Pin1-dependent cancer cell growth
production of IL6 [8]: suppressed
production of IL12 [8]: suppressed
production of TNF-α [8]: suppressed
sensitivity to anti-proliferative effects ([9]; Pin1 KO MEFs): much more resistant
drug sensitivity ([9]; Pin1 KO MEFs with stable re-expression of Pin1 (not its inactive mutant)): fully restored
inhibition of Pin1 catalytic (PPIase) activity ([1]; listed as trans-RA): Dose-dependant Pin1 inhibition; also recorded: inhibiting Pin1 PPIase assays
SLE-related phenotypes [10]: suppress SLE-related phenotypes
effect on normal breast cells [11]: without any effects
inhibition of cell growth [13]: inhibiting cell growth
proteinuria [14]: significantly reduced

Kd [17]: 220 ± 15 µM
Compound: CC(C)C[C@H](NC(=O)[C@H](CCCCN)NC(=O)[C@H](CCCNC(=N)N)NC(=O)[C@@H]1CCCN1C(=O)[C@H](COP(=O)(O)O)NC(=O)[C@H](Cc1c[nH]c2ccccc12)NC(=O)[C@H](C)NC(=O)[C@H](CCC(=O)O)NC(=O)[C@H](C)NC(=O)[C@@H](N)CCC(=O)O)C(=O)N1CCC[C@H]1C(=O)O [126-136 (pSer131-P132)] (H-EAEAW[pS]PRKLP-OH)

Pin1-catalyzed isomerization rate kex [18]: 27 s⁻¹
Compound: ^15N-Ala175-UD157-180: IRAK1 UD157-180 phosphopeptide with a single 15N label at Ala175 (ELGLVPSPASLWPPPP[pS]P[15N‑Ala]PSSTK; not fully specified; also: other phosphorylation sites not given here; UniProt P51617 157-180, looked up, fragment)
